Results taken from patent US20250049968A1, “THERAPEUTIC AND IMAGING AGENTS FOR TARGETING MYOCARDIAL TISSUE” (The Board of Regents of the University of Oklahoma, priority 2023, published 2025).

Assays:
[1] = clinical PK profile; cited from earlier work
[2] = system: MI hearts; experiment: Whole-body PET imaging of ^18F-OM for detection of MI in mice; format: in vivo; conditions: for cardiac uptake in MI hearts compared to sham/normal hearts, PET: occluded left anterior descending coronary artery model
Procedure: Approximately 80 uCi of ^18F-OM was injected and images were acquired after 4 h. […] In another non-limiting embodiment of the present disclosure, the OM or OM-liposomes can be labeled with ^18F radionuclide for PET imaging of myocardial infarction as an infarct-avid radiotracer. Unlike radiotracers for perfusion imaging, infarct-avid agents are not taken up by normal myocardium and only accumulate at the site of acute infarct. Therefore, infarct radiotracers produce images with less background and improved signal-to-noise ratio. Currently, no infarct-avid radiotracer is available for clinical PET imaging of infarct tissue. […] After successful labeling, we investigated ^18F-OM for detection of MI in a mouse model of occluded anterior descending branch of the left coronary artery. After imaging, the mice were euthanized to collect various organs for counting of tissue-associated radioactivity.

[3] = approx. 80 uCi, images after 4 h, FIG. 6

accumulation in sham hearts, PET ([2]; FIG. 7)	background signal from accumulation in liver and lung tissue ([2]; PET, mice)	accumulation in hearts of MI mice, whole-body PET [2, 3]	accumulation in normal hearts of control mice, whole-body PET [2, 3]	cardiac uptake in MI hearts compared to sham/normal hearts, PET ([2]; FIG. 7)	cardiac uptake in MI hearts compared to sham/normal hearts, PET ([2]; FIG. 7, listed as [18F]-OMA)	Compound	mean apparent terminal elimination half-life (t1/2) [1]	detection of surgical MI, target/non-target ratio ([2]; PET, mice, FIG. 6)
–	–	–	–	–	–	COC(=O)N1CCN(Cc2cccc(NC(=O)Nc3ccc(C)nc3)c2F)CC1 [OM, omecamtiv mecarbil]	18.5 h	–
accumulated significant	lack of background signal	high accumulation	no visible accumulation	significantly more pronounced	distinctly high uptake	COC(=O)N1CCN(Cc2cccc(NC(=O)Nc3ccc(C)nc3)c2OCCF)CC1 [^18F-OM, Methyl 4-(2-(2-fluoroethoxy)-3-(3-(6-methylpyridin-3-yl)ureido)benzyl)piperazine-1-carboxylate]	–	high target/non-target ratio
